The values that follow come from patent US10316049B2, “Tank-binding kinase inhibitor compounds” (Gilead Sciences, Inc., priority 2015, dated 2019).

In one assay the target is T1, TBK1 (Homo sapiens, UniProt Q9UHD2).
T1 construct: TBK1 and IKKε were expressed and purified as full length recombinant proteins; made in house
T1 sequence (Q9UHD2 1-729): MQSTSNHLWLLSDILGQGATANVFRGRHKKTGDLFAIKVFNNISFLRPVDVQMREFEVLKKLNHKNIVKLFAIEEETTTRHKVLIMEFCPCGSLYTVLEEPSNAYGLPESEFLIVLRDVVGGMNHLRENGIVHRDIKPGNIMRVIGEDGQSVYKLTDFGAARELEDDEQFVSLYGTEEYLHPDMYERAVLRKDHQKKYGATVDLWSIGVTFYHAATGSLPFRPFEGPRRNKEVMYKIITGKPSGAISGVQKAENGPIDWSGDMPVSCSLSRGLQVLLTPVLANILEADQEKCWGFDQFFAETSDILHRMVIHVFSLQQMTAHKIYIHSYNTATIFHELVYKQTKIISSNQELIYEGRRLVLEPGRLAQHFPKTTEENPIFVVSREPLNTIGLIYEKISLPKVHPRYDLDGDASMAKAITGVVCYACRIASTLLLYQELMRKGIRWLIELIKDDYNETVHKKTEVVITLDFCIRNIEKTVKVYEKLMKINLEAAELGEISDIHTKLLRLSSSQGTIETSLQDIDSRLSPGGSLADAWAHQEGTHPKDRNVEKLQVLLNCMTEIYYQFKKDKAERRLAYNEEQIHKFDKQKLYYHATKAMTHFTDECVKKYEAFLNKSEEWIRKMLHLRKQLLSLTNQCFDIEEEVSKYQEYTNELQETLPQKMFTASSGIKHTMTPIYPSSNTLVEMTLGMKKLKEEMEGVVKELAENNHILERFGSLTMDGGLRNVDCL
The assay can be described thus: TR-FRET enzymatic activity assay, TBK1. Note: full length recombinant TBK1 at 2.5 nM. It counts as biochemical. A digest of the protocol:
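TR-FRET detected phosphorylation of a biotinylated serine/threonine peptide using 125 nM streptavidin XL665 plus europium-labelled anti-phospho antibody. Reactions with full-length recombinant kinase ran 240 min at 25 °C before EDTA quench. Values are geometric-mean IC50s (n ≥ 4) from four-parameter dose-response fits against staurosporine and DMSO controls.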
(Time-resolved FRET reads energy transfer from a long-lived donor to a nearby acceptor.)

Another assay addresses T2, IKKε (Homo sapiens, UniProt Q14164).
T2 construct: TBK1 and IKKε were expressed and purified as full length recombinant proteins; made in house
T2 sequence (Q14164 1-716): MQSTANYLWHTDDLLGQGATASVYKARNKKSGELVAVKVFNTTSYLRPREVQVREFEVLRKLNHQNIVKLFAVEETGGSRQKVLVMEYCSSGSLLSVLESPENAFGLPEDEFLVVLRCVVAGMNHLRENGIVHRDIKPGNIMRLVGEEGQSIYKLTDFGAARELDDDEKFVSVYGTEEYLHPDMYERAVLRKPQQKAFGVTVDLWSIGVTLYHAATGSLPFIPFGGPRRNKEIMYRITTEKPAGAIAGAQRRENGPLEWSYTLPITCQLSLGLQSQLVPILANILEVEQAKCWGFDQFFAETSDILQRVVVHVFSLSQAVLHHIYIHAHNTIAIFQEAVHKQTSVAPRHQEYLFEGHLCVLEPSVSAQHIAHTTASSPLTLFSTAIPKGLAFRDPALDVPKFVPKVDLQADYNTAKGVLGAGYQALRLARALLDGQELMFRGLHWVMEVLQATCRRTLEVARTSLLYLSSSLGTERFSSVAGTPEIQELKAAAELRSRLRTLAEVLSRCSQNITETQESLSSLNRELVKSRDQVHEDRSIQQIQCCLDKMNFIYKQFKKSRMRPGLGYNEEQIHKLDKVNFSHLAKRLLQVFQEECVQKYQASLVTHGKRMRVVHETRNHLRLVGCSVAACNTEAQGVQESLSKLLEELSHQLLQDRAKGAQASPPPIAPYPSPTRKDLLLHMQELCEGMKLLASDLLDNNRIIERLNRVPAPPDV
The assay can be described thus: TR-FRET enzymatic activity assay, IKKε. Note: full length recombinant IKKε at 0.3 nM. Particulars: read-out: IKKϵ IC50. It counts as biochemical. Summed up: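 IC50 values are geometric means of at least four determinations, fitted to a four-parameter curve after normalising to 1 μM staurosporine and DMSO. Signal: Eu-cryptate anti-phospho antibody plus 125 nM streptavidin-XL665 on a biotinylated peptide. Full-length recombinant enzyme reacted 240 min, 25 °C, then EDTA-quenched.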

In the case of `N#CCC(=O)N1CC[C@H](Oc2ccc(-c3ccnc(NC(=O)C4CC4)c3)cc2C#N)[C@H](F)C1` [Example 12, N-(4-(3-cyano-4-(((3R,4S)-1-(2-cyanoacetyl)-3-fluoropiperidin-4-yl)oxy)phenyl)pyridin-2-yl)cyclopropanecarboxamide], the figures for the concentration for half-maximal inhibition (IC50) against TBK1 and at IKKε were 37.3 nM and 121 nM, respectively.
The corresponding values for `CCOC(=O)[C@@H]1C[C@H]1C(=O)Nc1cc(-c2ccc(OC3CCOCC3)c(C#N)c2)ccn1` (relative stereo) [Example 50, Ethyl trans-2-((4-(3-cyano-4-((tetrahydro-2H-pyran-4-yl)oxy)phenyl)pyridin-2-yl)carbamoyl)cyclopropane-1-carboxylate] are 230 nM and 535 nM.
The corresponding values for `C[C@H](O)C(=O)N1CC[C@H](Oc2ccc(-c3ccnc(NC(=O)C4CC4)c3)cc2C#N)C(F)(F)C1` [Example 11, N-(4-(3-cyano-4-(((S)-3,3-difluoro-1-((S)-2 hydroxypropanoyl)piperidin-4-yl)oxy)phenyl)pyridin-2-yl)cyclopropanecarboxamide] are 10.2 nM and 26.3 nM.
The corresponding values for `C[C@@H]1C[C@H]1C(=O)Nc1cc(-c2ccc(O[C@H]3CCN(C(=O)CO)C[C@H]3F)c(C#N)c2)ccn1` [Example 72, (1R,2R)—N-(4-(3-cyano-4-(((3R,4S)-3-fluoro-1-(2-hydroxyacetyl)piperidin-4-yl)oxy)phenyl)pyridin-2-yl)-2-methylcyclopropane-1-carboxamide] are 16.5 nM and 43.7 nM.
Consider `N#Cc1cc(-c2cc(NC(=O)C3CC3)ncn2)ccc1O[C@H]1CCN(C(=O)c2nnc[nH]2)C[C@H]1F` [Example 28, N-(6-(3-cyano-4-(((3R,4S)-3-fluoro-1-(4H-1,2,4-triazole-3-carbonyl)piperidin-4-yl)oxy)phenyl)pyrimidin-4-yl)cyclopropanecarboxamide], for which the values for the IC50 against TBK1 and on IKKε were 8 nM and 12.4 nM, respectively.
For `N#Cc1cc(-c2cc(NC(=O)C3CC3)ncn2)ccc1O[C@H]1CCN(C(=O)[C@@H](O)CO)CC1(F)F` [Example 22, N-(6-(3-cyano-4-(((S)-1-((S)-2,3-dihydroxypropanoyl)-3,3-difluoropiperidin-4-yl)oxy)phenyl)pyrimidin-4-yl)cyclopropanecarboxamide] the same measures were 2.8 nM and 9 nM.
For `COCC(=O)N1CC[C@H](Oc2ccc(-c3ccnc(NC(=O)[C@H]4C[C@@H]4F)c3)cc2C#N)[C@H](F)C1` [Example 68, (1,2-trans)-N-(4-(3-Cyano-4-(((3R,4S)-3-fluoro-1-(2-methoxyacetyl)piperidin-4-yl)oxy)phenyl)pyridin-2-yl)-2-fluorocyclopropane-1-carboxamide], the results for the 50% inhibitory concentration (IC50) at TBK1 and on IKKε were 34.2 nM and 87.8 nM, respectively.
For `Cn1cc([C@@H]2C[C@H]2C(=O)Nc2cc(-c3ccc(O[C@H]4CCN(C(=O)[C@@H](O)CO)CC4(F)F)c(C#N)c3)ncn2)cn1` [Example 132, (1,2-Trans)-N-(6-(3-cyano-4-(((S)-1-((S)-2,3-dihydroxypropanoyl)-3,3-difluoropiperidin-4-yl)oxy)phenyl)pyrimidin-4-yl)-2-(1-methyl-1H-pyrazol-4-yl)cyclopropane-1-carboxamide] the same measures were 4.7 nM and 12.3 nM.
The corresponding values for `N#Cc1cc(-c2ccnc(NC(=O)C3CCC3)c2)ccc1OC1CCOCC1` [Example 3, N-(4-(3-cyano-4-((tetrahydro-2H-pyran-4-yl)oxy)phenyl)pyridin-2-yl)cyclobutanecarboxamide] are 335 nM and 284 nM.
The corresponding values for `N#Cc1cc(-c2ccnc(NC(=O)[C@H]3C[C@@H]3F)c2)ccc1O[C@H]1CCN(C(=O)CO)C[C@H]1F` [Example 60, (1R,2S)—N-(4-(3-cyano-4-(((3R,4S)-3-fluoro-1-(2-hydroxyacetyl)piperidin-4-yl)oxy)phenyl)pyridin-2-yl)-2-fluorocyclopropanecarboxamide] are 15.7 nM and 46.3 nM.
In the case of `N#Cc1cc(-c2ccnc(NC(=O)C3CC3)c2)ccc1O[C@H]1CCN(C(=O)CCO)CC1(F)F` [Example 15, (S)—N-(4-(3-cyano-4-((3,3-difluoro-1-(3-hydroxypropanoyl)piperidin-4-yl)oxy)phenyl)pyridin-2-yl)cyclopropanecarboxamide], the 50% inhibitory concentration (IC50) on TBK1 turned out to be 23.2 nM; at IKKε, 84.2 nM.
For `CC1CC1C(=O)Nc1cc(-c2ccc(O[C@H]3CCN(C(=O)CO)C[C@H]3F)c(C#N)c2)ccn1` (stereo partly drawn) [Example 70, N-(4-(3-Cyano-4-(((3R,4S)-3-fluoro-1-(2-hydroxyacetyl)piperidin-4-yl)oxy)phenyl)pyridin-2-yl)-2-methylcyclopropanecarboxamide] the same measures were 8.9 nM and 26.1 nM.
For `N#Cc1cc(-c2ccnc(NC(=O)[C@@H]3CC3C(=O)O)c2)ccc1O[C@H]1CCN(C(=O)CO)C[C@H]1F` (stereo in doubt) [Example 84, (1,2-trans)-2-((4-(3-cyano-4-(((3R,4S)-3-fluoro-1-(2-hydroxyacetyl)piperidin-4-yl)oxy)phenyl)pyridin-2-yl)carbamoyl)cyclopropane-1-carboxylic acid] the same measures were 333 nM and 135 nM.
In the case of `CO[C@@H]1CCN(c2ccc(-c3ccnc(NC(=O)C4CC4)c3)cc2C#N)C1` [Example 97, (R)—N-(4-(3-cyano-4-(3-methoxypyrrolidin-1-yl)phenyl)pyridin-2-yl)cyclopropanecarboxamide], the IC50 against TBK1 came out at 270 nM; on IKKε it was 477 nM.
Consider `N#Cc1cc(-c2ccnc(NC(=O)[C@@H]3C[C@@H]3F)c2)ccc1O[C@H]1CCN(C(=O)CO)C[C@H]1F` [Example 61, (1S,2S)—N-(4-(3-cyano-4-(((3R,4S)-3-fluoro-1-(2-hydroxyacetyl)piperidin-4-yl)oxy)phenyl)pyridin-2-yl)-2-fluorocyclopropanecarboxamide], for which the figures for the 50% inhibitory concentration (IC50) at TBK1 and on IKKε were 16.4 nM and 32.2 nM, respectively.
For `N#Cc1cc(-c2ccnc(NC(=O)C3CC3)c2)ccc1N1CC[C@H](F)C1` [Example 18, (S)—N-(4-(3-cyano-4-(3-fluoropyrrolidin-1-yl)phenyl)pyridin-2-yl)cyclopropanecarboxamide] the same measures were 20.3 nM and 61.3 nM.
The corresponding values for `N#Cc1cc(-c2ccnc(NC(=O)[C@@H]3C[C@H]3c3ccc(C4CC4)nc3)c2)ccc1O[C@H]1CCN(C(=O)CO)CC1(F)F` [Example 115, (1R,2R)—N-(4-(3-cyano-4-(((S)-3,3-difluoro-1-(2-hydroxyacetyl)piperidin-4-yl)oxy)phenyl)pyridin-2-yl)-2-(6-cyclopropylpyridin-3-yl)cyclopropane-1-carboxamide] are 8.1 nM and 7.1 nM.
As for `N#Cc1cc(-c2cc(NC(=O)C3CC3)ncn2)ccc1O[C@H]1CCN(C(=O)CO)CC1(F)F` [Example 20, (S)—N-(6-(3-cyano-4-((3,3-difluoro-1-(2-hydroxyacetyl)piperidin-4-yl)oxy)phenyl)pyrimidin-4-yl)cyclopropanecarboxamide], the values for the IC50 on TBK1 and on IKKε were 4.8 nM and 9.5 nM, respectively.
Turning to `CC(=O)NC1C2CC1C2C(=O)Nc1cc(-c2ccc(OC3CCOCC3)c(C#N)c2)ccn1` (centres unmarked) [Example 55, 4-acetamido-N-(4-(3-cyano-4-((tetrahydro-2H-pyran-4-yl)oxy)phenyl)pyridin-2-yl)bicyclo[1.1.1]pentane-2-carboxamide], the IC50 against TBK1 and at IKKε was above 1000 nM throughout.

For orientation: IC50 means the concentration that inhibits the measured activity by half.
